Source: patent US9738634B2, “Heterocyclic amide compound and herbicide” (SYNGENTA PARTICIPATIONS AG, priority 2013, dated 2017)

What was measured:
Format in all cases: in vivo
[1] = system: green foxtail; assay: Test Example 3: weedkilling efficacy through soil treatment; E: green foxtail; settings: treatment dosage 315 g/ha
Outline: (§1)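 Crop and weed responses were judged three weeks after a uniform surface spray of the water-diluted emulsion at the given g/ha rate. Seeds sat beneath about 1.5 cm of sterilized diluvial soil, and boxes stood in a greenhouse at 25 to 30° C.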

[2] = system: wild oat; assay: Test Example 3: weedkilling efficacy through soil treatment; G: wild oat; settings: treatment dosage 315 g/ha
Outline: as §1

[3] = system: chickweed; assay: Test Example 3: weedkilling efficacy through soil treatment; N: chickweed; settings: treatment dosage 315 g/ha
Outline: as §1

[4] = system: soybean; assay: Test Example 4: foliar treatment, effect on crop; d: soybean; settings: treatment dosage 315 g/ha
Outline: (§2)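 Seeds are spot-sown into sterilized diluvial soil and covered with about 1.5 cm of soil. After 14 days' greenhouse growth at 25 to 30° C, plants are sprayed on stems and leaves with diluted emulsion at the stated g/ha rate, then scored at 3 weeks.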

[5] = system: soybean; assay: Test Example 3: soil treatment, effect on crop; d: soybean; settings: treatment dosage 315 g/ha
Outline: as §1

[6] = system: black-grass; assay: Test Example 3: weedkilling efficacy through soil treatment; H: black-grass; settings: treatment dosage 315 g/ha
Outline: as §1

[7] = system: wheat; assay: Test Example 4: foliar treatment, effect on crop; e: wheat; settings: treatment dosage 315 g/ha
Outline: as §2

[8] = system: crabgrass; assay: Test Example 3: weedkilling efficacy through soil treatment; D: crabgrass; settings: treatment dosage 315 g/ha
Outline: as §1

[9] = system: bulrush; assay: Test Example 2: weedkilling efficacy, growth period weed treatment in the submerged state; B: bulrush; settings: treatment dosage 252 g/ha
Outline: (§3)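 Barnyard grass, bulrush and oval-leafed pondweed sown in alluvial soil under 4 cm flooding, greenhouse 25 to 30° C. At 1-2 leaf stage, water-diluted emulsion applied to the water surface at stated g/ha dosages; effects scored 3 weeks later.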

[10] = system: Indian mallow; assay: Test Example 3: weedkilling efficacy through soil treatment; K: Indian mallow; settings: treatment dosage 315 g/ha
Outline: as §1

[11] = system: green foxtail; assay: Test Example 4: weedkilling efficacy by foliar treatment; E: green foxtail; settings: treatment dosage 315 g/ha
Outline: as §2

[12] = system: Italian ryegrass; assay: Test Example 4: weedkilling efficacy by foliar treatment; I: Italian ryegrass; settings: treatment dosage 315 g/ha
Outline: as §2

[13] = system: fig-leafed goosefoot; assay: Test Example 3: weedkilling efficacy through soil treatment; M: fig-leafed goosefoot; settings: treatment dosage 315 g/ha
Outline: as §1

[14] = system: redroot pigweed; assay: Test Example 3: weedkilling efficacy through soil treatment; L: redroot pigweed; settings: treatment dosage 315 g/ha
Outline: as §1

[15] = system: beet; assay: Test Example 4: foliar treatment, effect on crop; f: beet; settings: treatment dosage 315 g/ha
Outline: as §2

[16] = system: wild oat; assay: Test Example 4: weedkilling efficacy by foliar treatment; G: wild oat; settings: treatment dosage 315 g/ha
Outline: as §2

[17] = system: oval-leafed pondweed; assay: Test Example 2: weedkilling efficacy, growth period weed treatment in the submerged state; C: oval-leafed pondweed; settings: treatment dosage 252 g/ha
Outline: as §3

[18] = system: corn; assay: Test Example 4: foliar treatment, effect on crop; c: corn; settings: treatment dosage 315 g/ha
Outline: as §2

[19] = system: birds-eye speedwell; assay: Test Example 4: weedkilling efficacy by foliar treatment; p: birds-eye speedwell; settings: treatment dosage 315 g/ha
Outline: as §2

[20] = system: Italian ryegrass; assay: Test Example 3: weedkilling efficacy through soil treatment; I: Italian ryegrass; settings: treatment dosage 315 g/ha
Outline: as §1

[21] = system: oval-leafed pondweed; assay: Test Example 1: weedkilling efficacy, preemergent weed treatment in the submerged state; C: oval-leafed pondweed; settings: treatment dosage 252 g/ha
Outline: (§4)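 Visual scores against set criteria were taken 3 weeks after treatment. Compounds, as diluted emulsions at specified g/ha, went onto the water surface of 4 cm-flooded alluvial soil pots on the day weeds were sown and 2.5-leaf rice was transplanted; greenhouse held 25–30 °C.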

[22] = system: bulrush; assay: Test Example 1: weedkilling efficacy, preemergent weed treatment in the submerged state; B: bulrush; settings: treatment dosage 252 g/ha
Outline: as §4

[23] = system: Indian mallow; assay: Test Example 4: weedkilling efficacy by foliar treatment; K: Indian mallow; settings: treatment dosage 315 g/ha
Outline: as §2

[24] = system: corn; assay: Test Example 3: soil treatment, effect on crop; c: corn; settings: treatment dosage 315 g/ha
Outline: as §1

[25] = system: wheat; assay: Test Example 3: soil treatment, effect on crop; e: wheat; settings: treatment dosage 315 g/ha
Outline: as §1

[26] = system: transplanted rice; assay: Test Example 1: preemergent weed treatment in the submerged state, effect on crop; a: transplanted rice; settings: treatment dosage 252 g/ha
Outline: as §4

[27] = system: chickweed; assay: Test Example 4: weedkilling efficacy by foliar treatment; N: chickweed; settings: treatment dosage 315 g/ha
Outline: as §2

[28] = system: barnyard grass; assay: Test Example 1: weedkilling efficacy, preemergent weed treatment in the submerged state; A: barnyard grass; settings: treatment dosage 252 g/ha
Outline: as §4

[29] = system: birds-eye speedwell; assay: Test Example 3: weedkilling efficacy through soil treatment; p: birds-eye speedwell; settings: treatment dosage 315 g/ha
Outline: as §1

[30] = system: directly sown rice; assay: Test Example 4: foliar treatment, effect on crop; b: directly sown rice; settings: treatment dosage 315 g/ha
Outline: as §2

[31] = system: beet; assay: Test Example 3: soil treatment, effect on crop; f: beet; settings: treatment dosage 315 g/ha
Outline: as §1

[32] = system: catchweed; assay: Test Example 4: weedkilling efficacy by foliar treatment; O: catchweed; settings: treatment dosage 315 g/ha
Outline: as §2

[33] = system: barnyard grass; assay: Test Example 2: weedkilling efficacy, growth period weed treatment in the submerged state; A: barnyard grass; settings: treatment dosage 252 g/ha
Outline: as §3

[34] = system: crabgrass; assay: Test Example 4: weedkilling efficacy by foliar treatment; D: crabgrass; settings: treatment dosage 315 g/ha
Outline: as §2

[35] = system: redroot pigweed; assay: Test Example 4: weedkilling efficacy by foliar treatment; L: redroot pigweed; settings: treatment dosage 315 g/ha
Outline: as §2

[36] = system: fig-leafed goosefoot; assay: Test Example 4: weedkilling efficacy by foliar treatment; M: fig-leafed goosefoot; settings: treatment dosage 315 g/ha
Outline: as §2

[37] = system: black-grass; assay: Test Example 4: weedkilling efficacy by foliar treatment; H: black-grass; settings: treatment dosage 315 g/ha
Outline: as §2

[38] = system: directly sown rice; assay: Test Example 3: soil treatment, effect on crop; b: directly sown rice; settings: treatment dosage 315 g/ha
Outline: as §1

Row | SMILES | E (green foxtail) weedkilling efficacy grade [1] | G (wild oat) weedkilling efficacy grade [2] | N (chickweed) weedkilling efficacy grade [3] | d (soybean) effect on crop grade [4] | d (soybean) effect on crop grade [5] | H (black-grass) weedkilling efficacy grade [6] | e (wheat) effect on crop grade [7] | D (crabgrass) weedkilling efficacy grade [8] | B (bulrush) weedkilling efficacy grade [9] | K (Indian mallow) weedkilling efficacy grade [10] | E (green foxtail) weedkilling efficacy grade [11] | I (Italian ryegrass) weedkilling efficacy grade [12] | M (fig-leafed goosefoot) weedkilling efficacy grade [13] | L (redroot pigweed) weedkilling efficacy grade [14] | f (beet) effect on crop grade [15] | G (wild oat) weedkilling efficacy grade [16] | c (corn) effect on crop grade [18] | P (birds-eye speedwell) weedkilling efficacy grade [19] | I (Italian ryegrass) weedkilling efficacy grade [20] | C (oval-leafed pondweed) weedkilling efficacy grade [21] | other results
1 | CC1=C(c2ccccc2)C(=O)N(C(C)(C)C(=O)Nc2nc(Cl)ns2)CO1 [B-1-12] | 5 (weed kill ratio 90% or more, (practically complete withering)) | 3 (weed kill ratio 40% or more, less than 70%) | 4 (weed kill ratio 70% or more, less than 90%) | 0 (weed kill ratio 5% or less (practically no effect)) | 0 (weed kill ratio 5% or less (practically no effect)) | 4 (weed kill ratio 70% or more, less than 90%) | 0 (weed kill ratio 5% or less (practically no effect)) | 5 (weed kill ratio 90% or more, (practically complete withering)) | 5 (weed kill ratio 90% or more, (practically complete withering)) | 4 (weed kill ratio 70% or more, less than 90%) | 5 (weed kill ratio 90% or more, (practically complete withering)) | 1 (weed kill ratio 5% or more, less than 20%) | 4 (weed kill ratio 70% or more, less than 90%) | 4 (weed kill ratio 70% or more, less than 90%) | 4 (weed kill ratio 70% or more, less than 90%) | 3 (weed kill ratio 40% or more, less than 70%) | 5 (weed kill ratio 90% or more, (practically complete withering)) | 3 (weed kill ratio 40% or more, less than 70%) | 2 (weed kill ratio 20% or more, less than 40%) | 5 (weed kill ratio 90% or more, (practically complete withering)) | C (oval-leafed pondweed) weedkilling efficacy grade [17]: 5 (weed kill ratio 90% or more, (practically complete withering)); B (bulrush) weedkilling efficacy grade [22]: 5 (weed kill ratio 90% or more, (practically complete withering)); K (Indian mallow) weedkilling efficacy grade [23]: 3 (weed kill ratio 40% or more, less than 70%); c (corn) effect on crop grade [24]: 5 (weed kill ratio 90% or more, (practically complete withering)); e (wheat) effect on crop grade [25]: 0 (weed kill ratio 5% or less (practically no effect)); a (transplanted rice) effect on crop grade [26]: 0 (weed kill ratio 5% or less (practically no effect)); N (chickweed) weedkilling efficacy grade [27]: 4 (weed kill ratio 70% or more, less than 90%); A (barnyard grass) weedkilling efficacy grade [28]: 5 (weed kill ratio 90% or more, (practically complete withering)); P (birds-eye speedwell) weedkilling efficacy grade [29]: 4 (weed kill ratio 70% or more, less than 90%); b (directly sown rice) effect on crop grade [30]: 3 (weed kill ratio 40% or more, less than 70%); f (beet) effect on crop grade [31]: 5 (weed kill ratio 90% or more, (practically complete withering)); O (catchweed) weedkilling efficacy grade [32]: 3 (weed kill ratio 40% or more, less than 70%); A (barnyard grass) weedkilling efficacy grade [33]: 5 (weed kill ratio 90% or more, (practically complete withering)); D (crabgrass) weedkilling efficacy grade [34]: 5 (weed kill ratio 90% or more, (practically complete withering)); L (redroot pigweed) weedkilling efficacy grade [35]: 0 (weed kill ratio 5% or less (practically no effect)); M (fig-leafed goosefoot) weedkilling efficacy grade [36]: 4 (weed kill ratio 70% or more, less than 90%); H (black-grass) weedkilling efficacy grade [37]: 4 (weed kill ratio 70% or more, less than 90%); b (directly sown rice) effect on crop grade [38]: 5 (weed kill ratio 90% or more, (practically complete withering))
2 | CC1=C(c2ccccc2)C(=O)N(C(C)(C)C(=O)Nc2cc(Cl)nc(Cl)c2)CO1 [B-4-05] | 5 (weed kill ratio 90% or more, (practically complete withering)) | 5 (weed kill ratio 90% or more, (practically complete withering)) | 3 (weed kill ratio 40% or more, less than 70%) | 3 (weed kill ratio 40% or more, less than 70%) | 0 (weed kill ratio 5% or less (practically no effect)) | 5 (weed kill ratio 90% or more, (practically complete withering)) | 0 (weed kill ratio 5% or less (practically no effect)) | 5 (weed kill ratio 90% or more, (practically complete withering)) | 5 (weed kill ratio 90% or more, (practically complete withering)) | 3 (weed kill ratio 40% or more, less than 70%) | 5 (weed kill ratio 90% or more, (practically complete withering)) | 5 (weed kill ratio 90% or more, (practically complete withering)) | 4 (weed kill ratio 70% or more, less than 90%) | 4 (weed kill ratio 70% or more, less than 90%) | 0 (weed kill ratio 5% or less (practically no effect)) | 4 (weed kill ratio 70% or more, less than 90%) | 3 (weed kill ratio 40% or more, less than 70%) | 4 (weed kill ratio 70% or more, less than 90%) | 5 (weed kill ratio 90% or more, (practically complete withering)) | 5 (weed kill ratio 90% or more, (practically complete withering)) | B (bulrush) weedkilling efficacy grade [22]: 5 (weed kill ratio 90% or more, (practically complete withering)); K (Indian mallow) weedkilling efficacy grade [23]: 3 (weed kill ratio 40% or more, less than 70%); c (corn) effect on crop grade [24]: 0 (weed kill ratio 5% or less (practically no effect)); e (wheat) effect on crop grade [25]: 0 (weed kill ratio 5% or less (practically no effect)); a (transplanted rice) effect on crop grade [26]: 0 (weed kill ratio 5% or less (practically no effect)); N (chickweed) weedkilling efficacy grade [27]: 2 (weed kill ratio 20% or more, less than 40%); A (barnyard grass) weedkilling efficacy grade [28]: 5 (weed kill ratio 90% or more, (practically complete withering)); P (birds-eye speedwell) weedkilling efficacy grade [29]: 5 (weed kill ratio 90% or more, (practically complete withering)); b (directly sown rice) effect on crop grade [30]: 5 (weed kill ratio 90% or more, (practically complete withering)); O (catchweed) weedkilling efficacy grade [32]: 1 (weed kill ratio 5% or more, less than 20%); A (barnyard grass) weedkilling efficacy grade [33]: 4 (weed kill ratio 70% or more, less than 90%); D (crabgrass) weedkilling efficacy grade [34]: 5 (weed kill ratio 90% or more, (practically complete withering)); L (redroot pigweed) weedkilling efficacy grade [35]: 3 (weed kill ratio 40% or more, less than 70%); M (fig-leafed goosefoot) weedkilling efficacy grade [36]: 2 (weed kill ratio 20% or more, less than 40%); H (black-grass) weedkilling efficacy grade [37]: 4 (weed kill ratio 70% or more, less than 90%); b (directly sown rice) effect on crop grade [38]: 5 (weed kill ratio 90% or more, (practically complete withering))
